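1) Cells in 96-well plates. 2) Compound, 48 h, 5 concentrations. 3) Linear interpolation between surrounding doses. 4) Unreached endpoint = highest concentration. TGI: total growth inhibition.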

Among the test systems are HOP-62 NSCLC; MCF7 breast; HCC-2998 colon; MOLT-4 leukemia; 786-0 renal; CCRF-CEM leukemia; UACC-62 melanoma; SF-268 CNS; IGROV1 ovarian; HL-60(TB) leukemia; NCI-H226 lung; RXF 393 renal.
What all share (assay): NCI tumour cell line growth inhibition, 48 h

As for `CC1(C)O[C@H]2OC(CO)C(N=[N+]=[N-])[C@H]2O1` (stereo partly drawn), the TGI in the assay with HOP-62 NSCLC, in the assay on MCF7 breast, with HCC-2998 colon, in the assay with MOLT-4 leukemia, with 786-0 renal and with CCRF-CEM leukemia was more than 100 µM each time. Moreover, the TGI in the assay on UACC-62 melanoma, with SF-268 CNS, in the assay on IGROV1 ovarian and in the assay with HL-60(TB) leukemia was more than 100 µM each time.
Take `Cc1ccc(C(=O)NCc2ccccc2)cc1N=NN(C)C`: the TGI in the assay with HOP-62 NSCLC, with MCF7 breast, with HCC-2998 colon, in the assay on MOLT-4 leukemia, in the assay with 786-0 renal and in the assay on CCRF-CEM leukemia was more than 100 µM in each case. For the same compound, the TGI in the assay with UACC-62 melanoma, in the assay on SF-268 CNS, in the assay with NCI-H226 lung, with IGROV1 ovarian and with HL-60(TB) leukemia was more than 100 µM in each case.
Regarding `N/C(=N\S(=O)(=O)c1ccc(-c2ncccc2C(F)(F)F)s1)Nc1ccc(Cl)cc1`, the TGI with HOP-62 NSCLC came to 38.3 µM; in the assay on MCF7 breast it was 30 µM; with MOLT-4 leukemia, 53.7 µM; with 786-0 renal, 34.7 µM; in the assay on UACC-62 melanoma, 23.3 µM; in the assay with SF-268 CNS, 31.5 µM. The TGI in the assay on NCI-H226 lung turned out to be 41.4 µM; in the assay on IGROV1 ovarian it was 27.8 µM; in the assay with RXF 393 renal it was 41.5 µM; in the assay on HL-60(TB) leukemia it was 46.4 µM.
As to `COCCn1cnc2c(Cl)nc(Nc3ccccc3)nc21`, the TGI is more than 100 µM in the assay on HOP-62 NSCLC; more than 100 µM in the assay on MCF7 breast; 40 µM in the assay with HCC-2998 colon; 60.5 µM in the assay on MOLT-4 leukemia; more than 100 µM in the assay on 786-0 renal; 46.9 µM in the assay with CCRF-CEM leukemia. The TGI in the assay with UACC-62 melanoma is 85.1 µM; with SF-268 CNS, more than 100 µM; in the assay with NCI-H226 lung, more than 100 µM; in the assay with IGROV1 ovarian it was 50.9 µM; in the assay on RXF 393 renal, 47.4 µM; in the assay on HL-60(TB) leukemia, 63.3 µM.
For `COCn1cnc2c(=O)nc(SC)n(-c3ccccc3)c21`, the TGI in the assay on HOP-62 NSCLC, in the assay with MCF7 breast, in the assay on HCC-2998 colon, with MOLT-4 leukemia, in the assay with 786-0 renal and with CCRF-CEM leukemia was more than 100 µM each time. Also, the TGI in the assay with UACC-62 melanoma, in the assay on SF-268 CNS, with NCI-H226 lung, in the assay on IGROV1 ovarian, with RXF 393 renal and in the assay with HL-60(TB) leukemia was more than 100 µM in each case.
As to `O=c1cc(NNc2cccc(Cl)c2)[nH]c(=O)[nH]1`, the TGI with MCF7 breast is 17.3 µM; in the assay on HCC-2998 colon, more than 100 µM; in the assay on MOLT-4 leukemia it was 60.1 µM; with 786-0 renal, 31 µM; in the assay with CCRF-CEM leukemia it was 68.8 µM; with UACC-62 melanoma, more than 100 µM. The TGI was more than 100 µM in the assay on SF-268 CNS; more than 100 µM with NCI-H226 lung; more than 100 µM with IGROV1 ovarian; more than 100 µM in the assay with RXF 393 renal; 43.9 µM in the assay on HL-60(TB) leukemia.
Take `CCOP(=O)(OCC)/C(C#N)=C/c1ccc(-c2cc(C(F)(F)F)cc(C(F)(F)F)c2)o1`: the TGI in the assay on HOP-62 NSCLC was 29.1 µM; in the assay with MCF7 breast, 20 µM; in the assay on HCC-2998 colon, 22.2 µM; with MOLT-4 leukemia, 21.8 µM; with 786-0 renal, 25.5 µM; with CCRF-CEM leukemia, 34.3 µM. Further, the TGI in the assay on SF-268 CNS amounted to 33.3 µM; with NCI-H226 lung, 32.6 µM; in the assay on HL-60(TB) leukemia, 14.3 µM.
Regarding `CC1(C)OP(=O)(O)C=C1Sc1ccc([N+](=O)[O-])cc1[N+](=O)[O-]`, the TGI with HOP-62 NSCLC, with MCF7 breast, in the assay with HCC-2998 colon, in the assay with 786-0 renal, in the assay with UACC-62 melanoma and in the assay on SF-268 CNS was more than 100 µM in each case. In addition, the TGI in the assay with NCI-H226 lung, in the assay with IGROV1 ovarian and in the assay with HL-60(TB) leukemia was more than 100 µM throughout.
On to `COc1ccc(/C(Cl)=C(\C#N)c2ccc(OC)c(OC)c2)cc1OC`, for which the TGI with HOP-62 NSCLC, in the assay on MCF7 breast, in the assay on HCC-2998 colon, in the assay on MOLT-4 leukemia, in the assay with 786-0 renal and with UACC-62 melanoma was more than 100 µM in each case. Besides, the TGI with NCI-H226 lung, with IGROV1 ovarian, in the assay with RXF 393 renal and in the assay with HL-60(TB) leukemia was more than 100 µM throughout.
Consider `COc1ccc(CNc2nc(NC3CCCCC3)nc(NC3CCCCC3)n2)cc1`, for which the TGI is more than 100 µM in the assay on HOP-62 NSCLC; 18.8 µM in the assay on MCF7 breast; more than 100 µM in the assay with MOLT-4 leukemia; 70.3 µM in the assay on 786-0 renal; more than 100 µM with CCRF-CEM leukemia; 50.9 µM with UACC-62 melanoma. Moreover, the TGI in the assay with SF-268 CNS was more than 100 µM; in the assay with NCI-H226 lung it was 15.5 µM; with IGROV1 ovarian it was 61.6 µM; in the assay with RXF 393 renal, 7.94 µM; in the assay on HL-60(TB) leukemia, more than 100 µM.
`CC(=O)OCC1OC(n2c(C)c(N=Nc3ccc(Cl)cc3)c(C)c(C#N)c2=S)C(OC(C)=O)C(OC(C)=O)C1OC(C)=O` (stereo not drawn): the TGI with HOP-62 NSCLC was 51.7 µM; with MCF7 breast, more than 100 µM; with HCC-2998 colon, more than 100 µM; in the assay with MOLT-4 leukemia, more than 100 µM; with 786-0 renal, 42.4 µM; with CCRF-CEM leukemia, more than 100 µM. For the same compound, the TGI with UACC-62 melanoma is more than 100 µM; in the assay with SF-268 CNS, more than 100 µM; in the assay with IGROV1 ovarian it was more than 100 µM; in the assay on RXF 393 renal, 40.7 µM; in the assay on HL-60(TB) leukemia it was more than 100 µM.
With `CN1CCc2c(sc3[nH]c(=S)[nH]c(=S)c23)C1`, the TGI in the assay with HOP-62 NSCLC, with MCF7 breast, in the assay with MOLT-4 leukemia, in the assay on 786-0 renal, in the assay on CCRF-CEM leukemia and in the assay on UACC-62 melanoma was more than 100 µM in each case. Besides, the TGI in the assay with SF-268 CNS, in the assay with NCI-H226 lung, in the assay with IGROV1 ovarian, with RXF 393 renal and in the assay on HL-60(TB) leukemia was more than 100 µM throughout.
In the case of `CC(=O)NC1C(Sc2ncn(C3OC(CO)C(O)C(O)C3NC(C)=O)n2)OC(CO)C(O)C1O` (stereo not drawn), the TGI in the assay with HOP-62 NSCLC, in the assay on MCF7 breast, in the assay with HCC-2998 colon, in the assay with MOLT-4 leukemia, in the assay with 786-0 renal and in the assay with CCRF-CEM leukemia was more than 100 µM throughout. In addition, the TGI in the assay on UACC-62 melanoma, in the assay with SF-268 CNS, with IGROV1 ovarian, in the assay on RXF 393 renal and with HL-60(TB) leukemia was more than 100 µM throughout.

These data come from PubChem BioAssay (NCI).
